Measurements: patent US11426454B2 (priority 2018, dated 2022)

Tested on: live BCG bacteria
Type: in vivo, C57BL/6 mice
Details: 0.1 mL (approximately 10^6 CFU/mL) under the armpits; isoniazid by gavage; 2×10^6 live BCG challenge one week later; week 4

NNC(=O)c1ccncc1 [Isoniazid, isoniazid]
Colony count of lung tissues (CFU): 34000 ± 13115 CFU | Colony count of spleen tissues (CFU): 6733 ± 2969 CFU
